Laboratory results: the Deep4Chem optical property database
“And” between values parts separate entries of the source, which are not always exact repeats. Equal values may be shown once. Values belong to the compound of their own block, whether it stands above or below them.

Assay: solvent given as SMILES

SMILES: CCC(=O)c1ccc2cc(N(C)C)ccc2c1
absorption maximum (in C1CCCCC1): 342 nm and 343 nm | absorption maximum (in C1CCOC1): 346 nm | absorption maximum (in C1COCCO1): 348 nm | absorption maximum (in CC#N): 347 nm and 368 nm | absorption maximum (in CC(C)=O): 350 nm | absorption maximum (in CC(C)O): 367 nm | absorption maximum (in CCC(C)=O): 367 nm | absorption maximum (in CCCCCC): 338 nm | absorption maximum (in CCCCCCC): 343 nm | absorption maximum (in CCCCCCCCO): 360 nm | absorption maximum (in CCN(CC)CC): 343 nm | absorption maximum (in CCO): 362 nm and 369 nm | absorption maximum (in CCOC(C)=O): 352 nm | absorption maximum (in CN(C)C=O): 350 nm | absorption maximum (in CO): 362 nm | absorption maximum (in CS(C)=O): 359 nm and 369 nm | absorption maximum (in Cc1ccccc1): 345 nm and 349 nm | absorption maximum (in ClC(Cl)Cl): 358 nm | absorption maximum (in ClCCl): 355 nm and 358 nm | absorption maximum (in Clc1ccccc1): 254 nm and 354 nm | absorption maximum (in O): 364 nm | absorption maximum (in OCC(O)CO): 370 nm | absorption maximum (in OCCO): 375 nm | absorption maximum (in c1ccccc1): 355 nm

SMILES: Cc1nc(-c2ccc(-n3c4ccccc4c4ccccc43)cc2)cc(-c2ccc(-n3c4ccccc4c4ccccc43)cc2)n1
absorption maximum (in C1CCOC1): 343 nm | absorption maximum (in CN(C)C=O): 343 nm | absorption maximum (in Cc1ccccc1): 355 nm | absorption maximum (in ClC(Cl)Cl): 343 nm

SMILES: CC(C)(C)c1ccc(C#Cc2c(C#Cc3ccc(C(C)(C)C)cc3)c3cccc4c(C#Cc5ccc(C(C)(C)C)cc5)c(C#Cc5ccc(C(C)(C)C)cc5)c5cccc2c5c34)cc1
absorption maximum (in ClCCl): 410 nm

SMILES: COc1ccc(-c2c3ccccc3c3n2[B-](F)(F)[N+]2=Cc4c5ccccc5c(-c5ccc(OC)cc5)n4[B-](F)(F)[N+]2=C3)cc1
absorption maximum (in CC#N): 561 nm | absorption maximum (in CCCCCC): 573 nm | absorption maximum (in CN(C)C=O): 569 nm | absorption maximum (in Cc1ccccc1): 579 nm | absorption maximum (in ClCCl): 571 nm

SMILES: CCCCCCCCCCCCCCCC[n+]1ccc(/C=C/c2ccc(N(C)C)cc2)cc1
absorption maximum (in C1COCCO1): 463 nm | absorption maximum (in CC(C)=O): 477 nm | absorption maximum (in CC(C)O): 481.2 nm | absorption maximum (in CCCCCC): 454.6 nm | absorption maximum (in CCCCO): 487.1 nm | absorption maximum (in CCCO): 485.6 nm | absorption maximum (in CCO): 484.9 nm | absorption maximum (in CN(C)C=O): 475.3 nm | absorption maximum (in CO): 480.2 nm | absorption maximum (in CS(C)=O): 479 nm | absorption maximum (in Cc1ccccc1): 474.8 nm | absorption maximum (in ClC(Cl)(Cl)Cl): 467.2 nm | absorption maximum (in ClC(Cl)Cl): 493 nm | absorption maximum (in ClCCl): 515.2 nm | absorption maximum (in c1ccccc1): 476 nm

SMILES: CCCCCC(=O)Oc1cc2[nH]c(cc2CCOC)c2nc(ccc3[nH]c(cc3CCOC)c3nc1C(CCOC)=C3)C(CCOC)=C2
absorption maximum (in Cc1ccccc1): 646 nm

SMILES: COc1ccc(N(c2ccc(C=C(c3ccccc3)c3ccccc3)cc2)c2ccc(C=C(c3ccccc3)c3ccccc3)cc2)cc1
absorption maximum (in Cc1ccccc1): 397 nm

SMILES: CC(C)(C)c1ccc2c(c1)c1cc(C(C)(C)C)ccc1n2-c1ccc(N(c2ccc(-c3ccc4c(c3)C(C)(C)c3cc(-c5ccc(N(c6ccc(-n7c8ccc(C(C)(C)C)cc8c8cc(C(C)(C)C)ccc87)cc6)c6ccc(-n7c8ccc(C(C)(C)C)cc8c8cc(C(C)(C)C)ccc87)cc6)cc5)ccc3-4)cc2)c2ccc(-n3c4ccc(C(C)(C)C)cc4c4cc(C(C)(C)C)ccc43)cc2)cc1
absorption maximum (in ClCCl): 373 nm

SMILES: C1=Cc2ccccc2C(=Cc2ccc(-c3cc(-c4ccc(C=C5c6ccccc6C=Cc6ccccc65)cc4)cc(-c4ccc(C=C5c6ccccc6C=Cc6ccccc65)cc4)c3)cc2)c2ccccc21
absorption maximum (in C1CCOC1): 325 nm

SMILES: Fc1c(F)c(-n2c3ccccc3c3ccccc32)c(F)c(F)c1-c1nnc(-c2ccccc2)o1
absorption maximum (in Cc1ccccc1): 344 nm

SMILES: COc1c2ccccc2c(-c2ccccc2)c2ccccc12
absorption maximum (in C1COCCO1): 378 nm | absorption maximum (in CCCCCC): 378 nm | absorption maximum (in CCCCCCC): 376 nm | absorption maximum (in CCCCO): 378 nm | absorption maximum (in CCO): 378 nm | absorption maximum (in CN(C)C=O): 378 nm | absorption maximum (in Cc1ccccc1): 378 nm | absorption maximum (in ClC(Cl)(Cl)Cl): 376 nm | absorption maximum (in ClC(Cl)Cl): 378 nm | absorption maximum (in ClCCl): 378 nm | absorption maximum (in OCC(O)CO): 378 nm | absorption maximum (in OCCO): 379 nm

SMILES: N#Cc1c(-n2c3ccccc3c3ccccc32)nc(-n2c3ccccc3c3ccccc32)c(C#N)c1-c1ccccc1
absorption maximum (in c1cc(-c2cccc(-n3c4ccccc4c4ccccc43)c2)cc(-n2c3ccccc3c3ccccc32)c1): 374 nm

SMILES: N#Cc1c(-n2c3ccccc3c3cc(Br)ccc32)c(-n2c3ccccc3c3cc(Br)ccc32)c(C#N)c(-n2c3ccccc3c3cc(Br)ccc32)c1-n1c2ccccc2c2cc(Br)ccc21
absorption maximum (in Cc1ccccc1): 337 nm

SMILES: CCCCCCc1ccsc1-c1cc2c3cc(-c4sccc4CCCCCC)c4nc(C(F)(F)C(F)(F)C(F)(F)F)nc5c(-c6sccc6CCCCCC)cc(c6cc(-c7sccc7CCCCCC)c7nc(C(F)(F)C(F)(F)C(F)(F)F)nc1c7c26)c3c45
absorption maximum (in C1CCOC1): 521 nm

SMILES: c1cc(-n2c3ccccc3c3ccccc32)c(-c2nc3ccccn3n2)c(-n2c3ccccc3c3ccccc32)c1
absorption maximum (in Cc1ccccc1): 338 nm

SMILES: CCCCCCCCCc1csc2cc(-c3cc(-c4cc5scc(CCCCCCCCC)c5s4)c4ccc5c(-c6cc7scc(CCCCCCCCC)c7s6)cc(-c6cc7scc(CCCCCCCCC)c7s6)c6ccc3c4c65)sc12
absorption maximum (in ClC(Cl)Cl): 429 nm

SMILES: CCCCC(CC)CN1C(=O)c2cc(Oc3ccc(OC)cc3)c3c4c(Oc5ccc(C(C)(C)C)cc5)cc5c6c(cc(Oc7ccc(C(C)(C)C)cc7)c(c7c(Oc8ccc(OC)cc8)cc(c2c37)C1=O)c64)C(=O)N(c1c(C(C)C)cccc1C(C)C)C5=O (configuration not stated)
absorption maximum (in Cc1ccccc1): 581 nm

SMILES: CC(C)(C)c1ccc2c(c1)c1cc(C(C)(C)C)ccc1n2-c1cccc(-n2c3ccc(C(C)(C)C)cc3c3cc(C(C)(C)C)ccc32)c1C#N
absorption maximum (in Cc1ccccc1): 367 nm

SMILES: Cc1ccc2occ(CC(=O)NN)c2c1
absorption maximum (in C1CCOC1): 292 nm | absorption maximum (in CC#N): 289 nm | absorption maximum (in CC(C)=O): 293 nm | absorption maximum (in CCCCO): 290 nm | absorption maximum (in CCCO): 281 nm | absorption maximum (in CCO): 283 nm | absorption maximum (in CCOC(C)=O): 296 nm | absorption maximum (in CN(C)C=O): 313 nm | absorption maximum (in CO): 279 nm | absorption maximum (in ClCCl): 284 nm

Second part, the compound after the results:

absorption maximum (in ClCCl): 543 nm
SMILES: C1=CC2=CC=CC3C=c4c(cc5cccc6cccc4c65)C(=C1)C23 (configuration not stated)

absorption maximum (in CC#N): 321 nm
SMILES: COc1ccc(/C=C/c2ccccc2)cc1OC

absorption maximum (in C1CCCCC1): 307 nm
SMILES: COC(=O)c1noc(-c2ccccc2)c1Br

absorption maximum (in C1CCCCC1): 283 nm
SMILES: COc1ccc(C2=C(c3ccc(OC)cc3)C(C)(C)c3ccccc32)cc1

absorption maximum (in ClCCl): 369 nm
SMILES: COc1cc(OC)cc(C2=[O+][B-](F)(F)OC(c3ccccc3)=C2)c1

absorption maximum (in ClCCl): 290 nm
SMILES: O=S(=O)(c1ccc2c(c1)c1ccccc1n2-c1ccccc1)c1ccc2c(c1)c1ccccc1n2-c1ccccc1

absorption maximum (in ClCCl): 530 nm
SMILES: CC[C@H](C)COc1ccc(C2=C3C(C)=C(c4ccc5ccc6cccc7ccc4c5c67)C(C)=[N+]3[B-](F)(F)n3c(C)c(-c4ccc5ccc6cccc7ccc4c5c67)c(C)c32)cc1

absorption maximum (in ClCCl): 357 nm
SMILES: COc1ccc(-c2cc3c(ccc4sc5ccc6sccc6c5c43)s2)cc1

absorption maximum (in C1COCCO1): 393 nm
SMILES: COc1ccc(C2=N/C(=C\c3ccc(C#N)cc3)C(=O)O2)cc1OC

absorption maximum (in CC#N): 559 nm
SMILES: CC1=C2C3=C(CCc4ccccc43)C(C)=[N+]2[B-](F)(F)n2c(C)c3c(c21)-c1ccccc1CC3

absorption maximum (in CC#N): 398 nm | absorption maximum (in ClCCl): 402 nm
SMILES: COC(=O)c1cc(=O)n(C)c2cc(-c3ccc4c(c3)OCCO4)sc12

absorption maximum (in C1CCCCC1): 375 nm | absorption maximum (in CC#N): 375 nm | absorption maximum (in CO): 366 nm | absorption maximum (in ClCCl): 382 nm | absorption maximum (in O): 375 nm
SMILES: c1ccc(-c2nc(-c3c4ccccc4cc4ccccc34)n3ccccc23)cc1

absorption maximum (in ClC(Cl)Cl): 524 nm
SMILES: CC(C)C[Si](C#Cc1c2c(=O)c3ccccc3c2c(C#C[Si](CC(C)C)(CC(C)C)CC(C)C)c2c(=O)c3ccccc3c12)(CC(C)C)CC(C)C

absorption maximum (in C1CCOC1): 346 nm
SMILES: N#Cc1c(N2CCCCC2)cc(-c2ccc3ccc4cccc5ccc2c3c45)c2c1-c1ccccc1C2

absorption maximum (in ClC(Cl)Cl): 407 nm
SMILES: CCCCCCN1C(=O)c2cccc3c(-c4ccc(OC)s4)ccc(c23)C1=O

absorption maximum (in C1CCCCC1): 361 nm | absorption maximum (in CC#N): 355 nm | absorption maximum (in CO): 343 nm | absorption maximum (in ClCCl): 362 nm | absorption maximum (in O): 355 nm
SMILES: Oc1ccc2ccccc2c1-c1nc(-c2ccccc2)c2ccccn12

absorption maximum (in CC#N): 597 nm | absorption maximum (in CCO): 601 nm | absorption maximum (in ClCCl): 610 nm | absorption maximum (in O): 579 nm
SMILES: C=CCNc1ccc2c(ccc3oc4cc(=[N+](C)C)ccc-4nc32)c1

absorption maximum (in ClC(Cl)Cl): 381 nm
SMILES: CC[Si](C)(C)c1cc2ccc3cccc4ccc(c1C(=O)NC(C)(C)C)c2c34

absorption maximum (in CC#N): 540 nm | absorption maximum (in CCCCCC): 562 nm | absorption maximum (in CO): 555 nm
SMILES: COc1ccc2c(c1)N(c1ccc(C)cc1)c1cc3c(cc1=N2)Oc1c(cc(C(C)(C)C)cc1C(C)(C)C)N=3

absorption maximum (in CS(C)=O): 406 nm
SMILES: CCCCCn1c2ccc(S(=O)(=O)Cl)cc2c(=O)c2cc(S(=O)(=O)Cl)ccc21

absorption maximum (in CS(C)=O): 572 nm
SMILES: CCCCN1/C(=C/C=C/C2=[N+](C)c3ccccc3C2(C)C)C(C)(C)c2c1ccc1ccccc21

absorption maximum (in C1CCCCC1): 341 nm | absorption maximum (in C1CCOC1): 348 nm | absorption maximum (in C1COCCO1): 344 nm | absorption maximum (in CC#N): 337 nm | absorption maximum (in CC(C)(C)O): 346 nm | absorption maximum (in CC(C)O): 345 nm | absorption maximum (in CCCCCC): 340 nm | absorption maximum (in CCCCO): 345 nm | absorption maximum (in CCO): 344 nm | absorption maximum (in CCOC(C)=O): 344 nm | absorption maximum (in CN(C)C=O): 347 nm | absorption maximum (in CO): 344 nm | absorption maximum (in CS(C)=O): 348 nm | absorption maximum (in ClC(Cl)Cl): 346 nm | absorption maximum (in ClCCl): 341 nm | absorption maximum (in O): 346 nm | absorption maximum (in OCCO): 344 nm
SMILES: Cc1ccc(/C=N/c2cc(C(C)C)c(O)cc2C)cc1

absorption maximum (in C1CCCCC1): 374.83 nm
SMILES: CC(C)c1cc(C(C)C)c(B2c3cc(N4c5ccccc5C(C)(C)c5ccccc54)ccc3N(c3ccccc3)c3ccc(N4c5ccccc5C(C)(C)c5ccccc54)cc32)c(C(C)C)c1

absorption maximum (in CN(C)C=O): 333 nm
SMILES: Cc1ccc2[nH]c(-c3ccc(-c4ccc(-c5ccc(-c6nc7cc(C)ccc7[nH]6)cc5)c(C)c4)cc3)nc2c1
